Test results as given in patent US4515806A, “Furan derivatives and addition salts thereof pharmaceutical compositions and the therapeutical applications thereof” (priority 1982, dated 1985).
Where two headings read alike, the source gives them in different places.

Columns and labels:
histamine H2 receptors = target: T1, histamine H2 receptors (Rattus norvegicus, UniProt P25102); conditions: for inhibition at 0.0434 µM / inhibition at 0.434 µM / inhibition at 4.34 µM / inhibition at 43.4 µM: rat, read-out: Antagonism (% reduction) of the histamine induced response in KCl contracted rat uterus; for EC50: read-out: effective concentration for producing a 50% antagonism of the histamine response (EC50)
T1 construct: the uterine horn was removed and suspended in a De Jalon solution in an organ bath; from tissue; host or cells: rat uterine horn (rats in estrus, stilbestrol-treated)
Experimental: Rats in estrus were used and were administered 100 mcg of stilbestrol by intramuscular (i.m.) injection 30 hours before removing the uterus. On the day of the experiment, the uterine horn was removed and suspended in a De Jalon solution in an organ bath, held at 28° C. and aerated with a flow of 95% O2 and 5% CO2. Thereafter a sustained uterine contraction was induced by the addition of a KCl solution to provide a concentration in the organ bath of 4.2 mg/ml, namely, 10 times that of the De Jalon serum. The uterus was caused to relax with the addition of the amount of histamine required to obtain a good response.

gastric juices [1] = assay: Ligature of pylorus, intravenous treatment (Table B-1); assay type: in vivo, Male Wistar rats; conditions: for Volume of gastric juice, percentage decrease relative to control / pH of gastric juice, percentage increase relative to control / Total acidity (titration with 0,1N NaOH), percentage decrease relative to control: 10 mg/kg i.v., 3 h after ligature
Experimental: (§1) The method of […] et al. (J. Pharmac. Exp. […] Male Wistar rats, weighing from 250 to 300 grams were used. […] The rats were anesthetised with ethyl ether, a laparotomy was performed and the pylorus was ligatured. The abdominal incision was then sewn. Treatment was effected: (B-1) intravenously, through the femoral vein. (B-2) intraduodenally, prior to sewing the abdominal incision. Three hours after ligature of the pylorus, the volumen of gastric juices was measured, the pH was determined by a Beckman Century SS-1 pH-meter.

gastric juices [2] = assay: Ligature of pylorus, intraduodenal treatment (Table B-2); assay type: in vivo, Male Wistar rats
Experimental: as §1

Solubility (in words) = assay type: physicochemical
in vivo = conditions: mouse, iv
rats = assay: Acute toxicity in rats
[3] = 1 mg/kg intraduodenal, lot of 4 rats
[4] = 1 mg/kg intraduodenal, lot of 5 rats
[5] = 3 mg/kg intraduodenal, 4 or 5 rats
[6] = 10 mg/kg intraduodenal, first lot (4 or 5 rats)
[7] = 10 mg/kg intraduodenal, lot of 8 rats
[8] = 10 mg/kg intraduodenal, second lot (4 or 5 rats)

T1 sequence (P25102 whole entry): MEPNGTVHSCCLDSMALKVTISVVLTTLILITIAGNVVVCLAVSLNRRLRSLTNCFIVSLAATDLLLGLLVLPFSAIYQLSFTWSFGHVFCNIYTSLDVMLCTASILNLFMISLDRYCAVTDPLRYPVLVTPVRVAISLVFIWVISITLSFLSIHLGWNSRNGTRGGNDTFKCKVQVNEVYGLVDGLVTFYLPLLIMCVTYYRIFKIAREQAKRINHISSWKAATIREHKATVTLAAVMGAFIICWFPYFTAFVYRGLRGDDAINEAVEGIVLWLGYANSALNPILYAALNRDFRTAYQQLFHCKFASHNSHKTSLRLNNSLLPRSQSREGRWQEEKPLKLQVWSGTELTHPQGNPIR

## CN(C)Cc1ccc(CSCCNC(=C[N+](=O)[O-])NCCO)o1.Cl [Example 1, (b), N-[2-[[(5-[(dimethylamino)methyl]-2-furanyl)methyl]thio]ethyl]-N'-(2-hydroxyethyl)-2-nitro-1,1-ethenediamine hydrochloride]
Histamine H2 receptors; rat uterus H2 receptors
  activity compared with ranitidine: more active than ranitidine
Histamine H2 receptors
  inhibition at 0.0434 µM: 0%
  inhibition at 0.434 µM: 22.2%
  inhibition at 4.34 µM: 47.3%
  inhibition at 43.4 µM: 81.8%
  EC50: 5.5 µM
Gastric juices [1]; intravenous
  activity (reduction in volume, increase in pH of gastric juice): very high
  activity compared with cimetidine: more active than cimetidine
  activity compared with ranitidine: rather higher
Gastric juices [2]; intraduodenal
  activity (reduction in volume, increase in pH of gastric juice): very high
  activity compared with cimetidine: more active than cimetidine
  activity compared with ranitidine: practically the same activity
Solubility (in words); methanol
  solubility: soluble
Solubility (in words); water
  solubility: soluble
mice
  acute toxicity: low
In vivo
  LD50: 200 mg/kg
rats
  acute toxicity: low

## O=[N+]([O-])C=C(NCCO)NCCO [Example 2, N,N'-bis(2-hydroxyethyl)-2-nitro-1,1-ethenediamine]
Solubility (in words); ethanol
  solubility: slightly soluble
Solubility (in words); methanol
  solubility: slightly soluble
Solubility (in words); water
  solubility: soluble

## CNC(=C[N+](=O)[O-])NCCSCc1ccc(CN(C)C)o1 [Ranitidine, ranitidine]
Histamine H2 receptors; rat uterus, KCl contracted
  EC50: 8.25 µM
Histamine H2 receptors
  inhibition at 0.0434 µM: 0%
  inhibition at 0.434 µM: 20%
  inhibition at 4.34 µM: 42.2%
  inhibition at 43.4 µM: 73.8%
Gastric juices [1]; first lot (2 or 3 rats)
  Volume of gastric juice, percentage decrease relative to control: 68.1%
  pH of gastric juice, percentage increase relative to control: 200.8%
Gastric juices [1]; lot of 5 rats
  Total acidity (titration with 0,1N NaOH), percentage decrease relative to control: 81.8%
  Volume of gastric juice, percentage decrease relative to control: 61.4%
  pH of gastric juice, percentage increase relative to control: 88.5%
Gastric juices [1]; lot of 8 rats
  Total acidity (titration with 0,1N NaOH), percentage decrease relative to control: 72.7%
  Volume of gastric juice, percentage decrease relative to control: 21%
  pH of gastric juice, percentage increase relative to control: 104.2%
Gastric juices [2]; [3]
  Total acidity (titration with 0,1N NaOH), percentage decrease relative to control: 38%
  Volume of gastric juice, percentage decrease relative to control: 46.2%
  pH of gastric juice, percentage increase relative to control: 17%
Gastric juices [2]; [4]
  Total acidity (titration with 0,1N NaOH), percentage decrease relative to control: 18%
  Volume of gastric juice, percentage increase relative to control: 6%
  pH of gastric juice, percentage increase relative to control: 60%
Gastric juices [2]; [5]
  Total acidity (titration with 0,1N NaOH), percentage decrease relative to control: 47%
  Volume of gastric juice, percentage decrease relative to control: 5%
  pH of gastric juice, percentage increase relative to control: 46%
Gastric juices [2]; [6]
  Total acidity (titration with 0,1N NaOH), percentage decrease relative to control: 66%
  Volume of gastric juice, percentage decrease relative to control: 30%
  pH of gastric juice, percentage increase relative to control: 95%
Gastric juices [2]; [7]
  Total acidity (titration with 0,1N NaOH), percentage decrease relative to control: 50%
  Volume of gastric juice, percentage decrease relative to control: 12%
  pH of gastric juice, percentage increase relative to control: 97.4%
Gastric juices [2]; [8]
  Total acidity (titration with 0,1N NaOH), percentage decrease relative to control: 75%
  Volume of gastric juice, percentage decrease relative to control: 58%
  pH of gastric juice, percentage increase relative to control: 202%
Gastric juices [2]; 25 mg/kg intraduodenal, 5 rats
  Total acidity (titration with 0,1N NaOH), percentage decrease relative to control: 83%
  Volume of gastric juice, percentage decrease relative to control: 55%
  pH of gastric juice, percentage increase relative to control: 210%

## CN(C)Cc1ccc(CSCCNC(=C[N+](=O)[O-])NCCO)o1 [Example 1, (a), N-[2-[[(5-[(dimethylamino)methyl]-2-furanyl)methyl]thio]ethyl]-N'-(2-hydroxyethyl)-2-nitro-1,1-ethenediamine]
Solubility (in words); chloroform
  solubility: soluble
Solubility (in words); methanol
  solubility: soluble

## NCCc1c[nH]cn1 [histamine]
Histamine H2 receptors; read-out: inhibition of the contraction caused by KCl
  inhibition at 54.3 µM: 74.5%

## CN/C(=N/CCSCc1nc[nH]c1C)NC#N [Cimetidine, cimetidine]
Gastric juices [1]; first lot (2 or 3 rats)
  Volume of gastric juice, percentage decrease relative to control: 41.0%
  pH of gastric juice, percentage increase relative to control: 50.4%
Gastric juices [1]; lot of 5 rats
  Total acidity (titration with 0,1N NaOH), percentage decrease relative to control: 11.7%
  Volume of gastric juice, percentage decrease relative to control: 23.2%
Gastric juices [1]; lot of 8 rats
  Total acidity (titration with 0,1N NaOH), percentage decrease relative to control: 52.7%
  Volume of gastric juice, percentage decrease relative to control: 7.3%
  pH of gastric juice, percentage increase relative to control: 64.9%
Gastric juices [2]; [3]
  Total acidity (titration with 0,1N NaOH), percentage decrease relative to control: 48%
  Volume of gastric juice, percentage decrease relative to control: 14%
  pH of gastric juice, percentage increase relative to control: 46%
Gastric juices [2]; [5]
  Total acidity (titration with 0,1N NaOH), percentage decrease relative to control: 48%
  Volume of gastric juice, percentage decrease relative to control: 23%
  pH of gastric juice, percentage increase relative to control: 29%
Gastric juices [2]; [6]
  Total acidity (titration with 0,1N NaOH), percentage decrease relative to control: 84%
  Volume of gastric juice, percentage decrease relative to control: 28%
  pH of gastric juice, percentage increase relative to control: 50%
Gastric juices [2]; [7]
  Total acidity (titration with 0,1N NaOH), percentage decrease relative to control: 40%
  Volume of gastric juice, percentage decrease relative to control: 6.6%
  pH of gastric juice, percentage increase relative to control: 100%
Gastric juices [2]; [8]
  Total acidity (titration with 0,1N NaOH), percentage decrease relative to control: 82%
  Volume of gastric juice, percentage decrease relative to control: 51%
  pH of gastric juice, percentage increase relative to control: 178%
Gastric juices [2]; 25 mg/kg intraduodenal, 5 rats
  Total acidity (titration with 0,1N NaOH), percentage decrease relative to control: 51.5%
  Volume of gastric juice, percentage decrease relative to control: 35.4%
  pH of gastric juice, percentage increase relative to control: 110%
